Laboratory results as given in ChEMBL document CHEMBL1128629, “Mechanism-based inactivation of porphobilinogen synthase: Substitution of ketone functionality in the substrate with a thioester” (Bioorg Med Chem Lett, 1995).
Blank lines part the entries; values can stand above or below the molecule they belong to.

Assays:
Details in all cases: Escherichia coli
[1] = target: T1, Delta-aminolevulinic acid dehydratase (Homo sapiens) (UniProt P13716); experiment: Inhibitory activity against porphobilinogen synthase in presence of 5 mM for 30 min; No loss in activity
T1 sequence (whole entry): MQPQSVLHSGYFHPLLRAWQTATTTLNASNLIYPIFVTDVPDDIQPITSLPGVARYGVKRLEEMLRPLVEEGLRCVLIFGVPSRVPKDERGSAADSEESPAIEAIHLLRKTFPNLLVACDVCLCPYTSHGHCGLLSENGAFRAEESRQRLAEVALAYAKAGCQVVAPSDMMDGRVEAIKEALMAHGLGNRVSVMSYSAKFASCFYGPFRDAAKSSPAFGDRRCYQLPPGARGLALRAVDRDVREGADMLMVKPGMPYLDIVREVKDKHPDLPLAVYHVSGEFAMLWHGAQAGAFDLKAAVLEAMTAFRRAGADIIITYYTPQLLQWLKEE

[2] = target: T1, Delta-aminolevulinic acid dehydratase (Homo sapiens); experiment: Inhibitory activity against porphobilinogen synthase in presence of 150 uM over 30 min
[3] = target: T1, Delta-aminolevulinic acid dehydratase (Homo sapiens); experiment: Retention of porphobilinogen synthase activity in presence of 0.3 uM of the compound

- Loss of activity [1]: No loss in activity
Structure (SMILES): NCC(=O)OCC(=O)O

- Loss of activity [2]: 80%
Structure (SMILES): NCC(=O)SCC(=O)O

- Retention [3]: 80%
Structure (SMILES): NCC(=O)CCC(=O)O
